Inconclusive results and toxic doses are left out. How the source made its calls: active means survival T/C of 150% or more; inactive means T/C below 125% in these data.
Test system: CD2F1 mice, L1210 leukemia ip, survival T/C
Assay: NCI In Vivo Anticancer Drug Screen. Data for tumor model L1210 Leukemia (intraperitoneal) in CD2F1 (CDF1) mice
Settings: higher = longer survival
Procedure, shortened: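 Read-out first: treated-group measurement over vehicle-control measurement, expressed as a ratio. Animals bore a transplanted tumor line and were dosed with compound or vehicle.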

[1] = endpoint: mean survival time, dose: 12.5 mg/kg/injection, schedule: Q04DX003 (ip), vehicle: saline with Tween-80
[2] = endpoint: mean survival time, dose: 25.0 mg/kg/injection, schedule: Q04DX003 (ip), vehicle: saline with Tween-80
[3] = endpoint: mean survival time, dose: 100.0 mg/kg/injection, schedule: Q04DX003 (ip), vehicle: saline with Tween-80
[4] = endpoint: mean survival time, dose: 400.0 mg/kg/injection, schedule: Q04DX003 (ip), vehicle: saline with Tween-80

Measured: T/C

ClCCOc1ccccc1-c1ccccc1
inactive: endpoint: mean survival time, dose: 100.0 mg/kg/injection, schedule: Q04DX003 (ip), vehicle: other 98 % of control | endpoint: mean survival time, dose: 200.0 mg/kg/injection, schedule: Q04DX003 (ip), vehicle: other 96 % of control | endpoint: mean survival time, dose: 400.0 mg/kg/injection, schedule: Q04DX003 (ip), vehicle: other 100 % of control

BrCCN(CCBr)c1ccc2c3c(cccc13)-c1ccccc1-2
inactive: endpoint: mean survival time, dose: 1.5 mg/kg/injection, schedule: Q01DX Z (ip), vehicle: saline 113 % of control | endpoint: mean survival time, dose: 2.0 mg/kg/injection, schedule: Q01DX Z (ip), vehicle: saline 98 % of control | endpoint: mean survival time, dose: 3.2 mg/kg/injection, schedule: Q01DX Z (ip), vehicle: saline 110 % of control | endpoint: mean survival time, dose: 5.0 mg/kg/injection, schedule: Q01DX Z (ip), vehicle: saline 121 % of control

CCN(CC)c1ccc(N(C(C)=O)C(C)=O)cc1
inactive: endpoint: mean survival time, dose: 6.25 mg/kg/injection, schedule: Q04DX003 (ip), vehicle: saline with Tween-80 91 % of control | [1] 95 % of control | [2] 93 % of control

O=P(O)(O)OCC1OC(n2cnc3c(NCc4ccccc4)ncnc32)C(O)C1O (stereo not given)
inactive: endpoint: mean survival time, dose: 12.5 mg/kg/injection, schedule: Q01DX005 (ip), vehicle: other 104 % of control | endpoint: mean survival time, dose: 25.0 mg/kg/injection, schedule: Q01DX005 (ip), vehicle: other 100 % of control | endpoint: mean survival time, dose: 50.0 mg/kg/injection, schedule: Q01DX005 (ip), vehicle: other 104 % of control | endpoint: mean survival time, dose: 100.0 mg/kg/injection, schedule: Q01DX005 (ip), vehicle: other 117 % of control

COC(=O)[C@@H]1[C@@H](O)[C@H](OC(=O)c2cc(OC)c(OC)c(OC)c2)C[C@@H]2CN3CCc4c([nH]c5ccccc45)[C@H]3C[C@@H]21
inactive: endpoint: mean survival time, dose: 1.56 mg/kg/injection, schedule: Q01DX009 (ip), vehicle: saline sonified 93 % of control | endpoint: mean survival time, dose: 3.13 mg/kg/injection, schedule: Q01DX009 (ip), vehicle: saline sonified 95 % of control | endpoint: mean survival time, dose: 6.25 mg/kg/injection, schedule: Q01DX009 (ip), vehicle: saline sonified 102 % of control | [1] 103 % of control | [2] 103 % of control | endpoint: mean survival time, dose: 50.0 mg/kg/injection, schedule: Q04DX003 (ip), vehicle: saline with Tween-80 103 % of control

C=CS(=O)(=O)CCCC
inactive: endpoint: mean survival time, dose: 100.0 mg/kg/injection, schedule: Q01DX001 (ip), vehicle: Klucel (hydroxypropylcellulose) (HPC) 96 % of control | endpoint: mean survival time, dose: 200.0 mg/kg/injection, schedule: Q01DX001 (ip), vehicle: Klucel (hydroxypropylcellulose) (HPC) 96 % of control | endpoint: mean survival time, dose: 400.0 mg/kg/injection, schedule: Q01DX001 (ip), vehicle: Klucel (hydroxypropylcellulose) (HPC) 101 % of control

Cc1c(O)c2c(c(O)c1Cc1cccc(CN)c1)C(=O)c1ccccc1C2=O
inactive: endpoint: mean survival time, dose: 1.56 mg/kg/injection, schedule: Q01DX009 (ip), vehicle: other 101 % of control | endpoint: mean survival time, dose: 3.13 mg/kg/injection, schedule: Q01DX009 (ip), vehicle: other 93 % of control | endpoint: mean survival time, dose: 6.25 mg/kg/injection, schedule: Q01DX009 (ip), vehicle: other 87 % of control | endpoint: mean survival time, dose: 12.5 mg/kg/injection, schedule: Q01DX009 (ip), vehicle: other 90 % of control | endpoint: mean survival time, dose: 25.0 mg/kg/injection, schedule: Q01DX009 (ip), vehicle: other 94 % of control

N=S(=O)(c1ccccc1)c1ccccc1
inactive: endpoint: mean survival time, dose: 100.0 mg/kg/injection, schedule: Q01DX001 (ip), vehicle: saline with Tween-80 98 % of control | endpoint: mean survival time, dose: 100.0 mg/kg/injection, schedule: Q04DX002 (ip), vehicle: saline with Tween-80 110 % of control | endpoint: mean survival time, dose: 200.0 mg/kg/injection, schedule: Q01DX001 (ip), vehicle: saline with Tween-80 94 % of control | endpoint: mean survival time, dose: 200.0 mg/kg/injection, schedule: Q04DX002 (ip), vehicle: saline with Tween-80 93 % of control | endpoint: mean survival time, dose: 400.0 mg/kg/injection, schedule: Q01DX001 (ip), vehicle: saline with Tween-80 107 % of control

C1CC[N-]CC1.[Cl][Au]([Cl])[Cl]
inactive: endpoint: mean survival time, dose: 25.0 mg/kg/injection, schedule: Q01DX009 (ip), vehicle: saline with Tween-80 97 % of control | endpoint: mean survival time, dose: 50.0 mg/kg/injection, schedule: Q01DX009 (ip), vehicle: saline with Tween-80 100 % of control | [3] 96 % of control

O=S(=O)(OCC1CC2CCC1CC2)c1ccc(Br)cc1 (stereo not given)
inactive: endpoint: mean survival time, dose: 100.0 mg/kg/injection, schedule: Q01DX009 (ip), vehicle: saline with Tween-80 96 % of control | [3] 95 % of control | endpoint: mean survival time, dose: 200.0 mg/kg/injection, schedule: Q01DX009 (ip), vehicle: saline with Tween-80 112 % of control | endpoint: mean survival time, dose: 200.0 mg/kg/injection, schedule: Q04DX003 (ip), vehicle: saline with Tween-80 97 % of control | endpoint: mean survival time, dose: 400.0 mg/kg/injection, schedule: Q01DX009 (ip), vehicle: saline with Tween-80 102 % of control | [4] 95 % of control

CN(C(N)=O)C1CCCC1
inactive: endpoint: mean survival time, dose: 100.0 mg/kg/injection, schedule: Q01DX009 (ip), vehicle: saline 102 % of control | endpoint: mean survival time, dose: 200.0 mg/kg/injection, schedule: Q01DX009 (ip), vehicle: saline 105 % of control | endpoint: mean survival time, dose: 400.0 mg/kg/injection, schedule: Q01DX009 (ip), vehicle: saline 107 % of control

O=S1(=O)CC(S(=O)(=O)O)C(S(=O)(=O)O)C1 (stereo not given)
inactive: endpoint: mean survival time, dose: 100.0 mg/kg/injection, schedule: Q04DX003 (ip), vehicle: saline 93 % of control | endpoint: mean survival time, dose: 200.0 mg/kg/injection, schedule: Q04DX003 (ip), vehicle: saline 101 % of control | endpoint: mean survival time, dose: 400.0 mg/kg/injection, schedule: Q04DX003 (ip), vehicle: saline 93 % of control

O=C(Cc1ccccn1)c1ccccc1
inactive: endpoint: mean survival time, dose: 100.0 mg/kg/injection, schedule: Q01DX009 (ip), vehicle: other 101 % of control | endpoint: mean survival time, dose: 200.0 mg/kg/injection, schedule: Q01DX009 (ip), vehicle: other 96 % of control | endpoint: mean survival time, dose: 400.0 mg/kg/injection, schedule: Q01DX009 (ip), vehicle: other 96 % of control

O=C1C=CC(=O)C2C3C=CC(C/C=C\C3)C12 (stereo not given)
inactive: endpoint: mean survival time, dose: 12.5 mg/kg/injection, schedule: Q04DX002 (ip), vehicle: saline with Tween-80 105 % of control | endpoint: mean survival time, dose: 25.0 mg/kg/injection, schedule: Q04DX002 (ip), vehicle: saline with Tween-80 94 % of control | endpoint: mean survival time, dose: 50.0 mg/kg/injection, schedule: Q04DX002 (ip), vehicle: saline with Tween-80 94 % of control

C=C.O=C(O)/C=C\C(=O)O.[Mn]
inactive: endpoint: mean survival time, dose: 1.0 mg/kg/injection, schedule: Q01DX009 (ip), vehicle: saline with Tween-80 95 % of control | endpoint: mean survival time, dose: 1.0 mg/kg/injection, schedule: Q04DX003 (ip), vehicle: saline with Tween-80 97 % of control | endpoint: mean survival time, dose: 2.0 mg/kg/injection, schedule: Q01DX009 (ip), vehicle: saline with Tween-80 95 % of control | endpoint: mean survival time, dose: 2.0 mg/kg/injection, schedule: Q04DX003 (ip), vehicle: saline with Tween-80 95 % of control | endpoint: mean survival time, dose: 4.0 mg/kg/injection, schedule: Q04DX003 (ip), vehicle: saline with Tween-80 91 % of control

O=[N+]([O-])c1ccc(N2CCOCC2)c2c1no[n+]2[O-]
inactive: endpoint: median survival time, dose: 12.5 mg/kg/injection, schedule: Q01DX009 (ip), vehicle: saline with Tween-80 117 % of control | endpoint: median survival time, dose: 25.0 mg/kg/injection, schedule: Q01DX009 (ip), vehicle: saline with Tween-80 112 % of control | endpoint: median survival time, dose: 50.0 mg/kg/injection, schedule: Q01DX009 (ip), vehicle: saline with Tween-80 108 % of control | endpoint: median survival time, dose: 100.0 mg/kg/injection, schedule: Q01DX009 (ip), vehicle: saline with Tween-80 91 % of control

CC1(O)Nc2nc3c(ncn3C3OC(CO)C(O)C3O)c(=O)n2C1O (stereo not given)
inactive: endpoint: mean survival time, dose: 12.5 mg/kg/injection, schedule: Q01DX005 (ip), vehicle: water 106 % of control | endpoint: mean survival time, dose: 25.0 mg/kg/injection, schedule: Q01DX005 (ip), vehicle: water 95 % of control | endpoint: mean survival time, dose: 50.0 mg/kg/injection, schedule: Q01DX005 (ip), vehicle: water 93 % of control | endpoint: mean survival time, dose: 100.0 mg/kg/injection, schedule: Q01DX005 (ip), vehicle: water 101 % of control | endpoint: mean survival time, dose: 200.0 mg/kg/injection, schedule: Q01DX005 (ip), vehicle: water 95 % of control

O=S(=O)(/C=C\c1ccccc1)/C=C/c1ccccc1
inactive: [3] 91 % of control | [4] 86 % of control
